We go through one molecule from patent US8604021B2, “Substituted arylamine compounds and methods of treatment” (priority 2005, dated 2013).

The test system of data set [1] is more than 70 tested receptors. The settings on record: versus 5-HT6.
A further data set addresses D2 (Homo sapiens, UniProt P14416). As to the kind of experiment: Compound Binding Profiles: D2. The note with it: * = Estimated IC50.
For a further data set, the target named is CYP2D6 (Homo sapiens, UniProt P10635). Nature of the data set: CYP inhibition CYP2D6.
For another data set, the target named is CYP2C9 (Homo sapiens, UniProt P11712). As to the kind of experiment: CYP inhibition CYP2C9.
The next data set has as its target CYP2C19 (Homo sapiens, UniProt P33261). As to the kind of experiment: CYP inhibition CYP2C19.
A further data set deals with T1, M1 (Homo sapiens, UniProt P11229).
T1 sequence (P11229 1-460): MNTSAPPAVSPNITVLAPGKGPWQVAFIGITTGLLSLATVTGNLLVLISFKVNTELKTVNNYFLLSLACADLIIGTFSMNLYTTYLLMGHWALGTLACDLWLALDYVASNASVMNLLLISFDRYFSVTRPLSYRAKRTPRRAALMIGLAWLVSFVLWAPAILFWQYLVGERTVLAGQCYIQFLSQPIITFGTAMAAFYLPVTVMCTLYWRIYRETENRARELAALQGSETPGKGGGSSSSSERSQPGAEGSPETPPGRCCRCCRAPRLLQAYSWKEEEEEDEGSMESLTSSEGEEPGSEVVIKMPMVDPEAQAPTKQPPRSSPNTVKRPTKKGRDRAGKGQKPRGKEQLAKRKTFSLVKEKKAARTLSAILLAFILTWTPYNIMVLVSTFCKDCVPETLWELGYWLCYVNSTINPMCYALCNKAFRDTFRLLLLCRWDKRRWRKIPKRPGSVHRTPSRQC
As to the kind of experiment: Compound Binding Profiles: M1. The note with it: * = Estimated IC50.

The next data set concerns the target T2, 5HT2C (Homo sapiens, UniProt P28335).
T2 sequence (P28335 33-458): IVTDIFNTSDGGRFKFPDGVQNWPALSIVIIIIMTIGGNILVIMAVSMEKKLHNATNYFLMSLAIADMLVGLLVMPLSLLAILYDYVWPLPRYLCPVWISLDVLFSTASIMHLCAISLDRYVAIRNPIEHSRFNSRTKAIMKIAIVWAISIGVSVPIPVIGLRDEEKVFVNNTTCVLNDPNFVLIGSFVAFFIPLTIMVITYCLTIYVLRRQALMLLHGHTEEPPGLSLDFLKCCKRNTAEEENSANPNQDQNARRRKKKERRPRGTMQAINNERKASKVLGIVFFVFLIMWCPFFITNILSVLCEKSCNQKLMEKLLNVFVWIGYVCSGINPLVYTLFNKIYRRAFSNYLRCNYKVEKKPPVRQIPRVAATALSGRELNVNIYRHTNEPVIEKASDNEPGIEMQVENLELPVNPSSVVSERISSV
Nature of the data set: Compound Binding Profiles: 5HT2C. The note with it: * = Estimated IC50.

The next data set deals with T3, CYP1A2 (Homo sapiens, UniProt P05177).
T3 sequence (P05177 1-516): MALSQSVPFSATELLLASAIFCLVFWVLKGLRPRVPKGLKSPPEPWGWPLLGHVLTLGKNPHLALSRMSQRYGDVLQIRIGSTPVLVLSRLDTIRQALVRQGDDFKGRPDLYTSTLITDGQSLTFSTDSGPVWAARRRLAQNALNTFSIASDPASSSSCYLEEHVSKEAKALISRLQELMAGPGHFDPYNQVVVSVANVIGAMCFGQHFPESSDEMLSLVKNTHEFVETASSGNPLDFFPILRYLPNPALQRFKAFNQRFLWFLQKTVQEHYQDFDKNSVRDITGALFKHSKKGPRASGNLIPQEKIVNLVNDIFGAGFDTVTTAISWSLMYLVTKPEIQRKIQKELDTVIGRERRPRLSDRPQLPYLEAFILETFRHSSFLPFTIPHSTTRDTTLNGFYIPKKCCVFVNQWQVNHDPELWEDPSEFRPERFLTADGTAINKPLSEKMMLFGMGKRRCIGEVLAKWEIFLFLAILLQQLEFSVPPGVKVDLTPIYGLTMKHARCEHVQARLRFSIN
Nature of the data set: CYP inhibition CYP1A2.

Data set [2] in a line: Oral pharmacokinetics in dogs. The settings on record: dog, in vivo, oral administration 5 mg/kg.
Another data set addresses CYP3A4 (Homo sapiens, UniProt P08684). As to the kind of experiment: CYP inhibition CYP3A4.
The next data set deals with D1 (Homo sapiens, UniProt P21728). As to the kind of experiment: Compound Binding Profiles: D1. The settings on record: read-out: D1 binding class.
A short description of data set [3]: Food intake and body weight in mice, sub-chronic dosing. The class given is in vivo. The note with it: sub-chronic dosing 10 and 30 mg/kg qd, i.p.
Data set [4] is described as follows: Oral pharmacokinetics in rodents. The settings on record: in vivo, oral administration 5 mg/kg.
Another data set has as its target α2. Nature of the data set: Compound Binding Profiles: α2. The note with it: * = Estimated IC50.
The next data set has as its target α1. As to the kind of experiment: Compound Binding Profiles: α1. The settings on record: * = Estimated IC50.

CYP2D6, sequence (P10635 whole entry): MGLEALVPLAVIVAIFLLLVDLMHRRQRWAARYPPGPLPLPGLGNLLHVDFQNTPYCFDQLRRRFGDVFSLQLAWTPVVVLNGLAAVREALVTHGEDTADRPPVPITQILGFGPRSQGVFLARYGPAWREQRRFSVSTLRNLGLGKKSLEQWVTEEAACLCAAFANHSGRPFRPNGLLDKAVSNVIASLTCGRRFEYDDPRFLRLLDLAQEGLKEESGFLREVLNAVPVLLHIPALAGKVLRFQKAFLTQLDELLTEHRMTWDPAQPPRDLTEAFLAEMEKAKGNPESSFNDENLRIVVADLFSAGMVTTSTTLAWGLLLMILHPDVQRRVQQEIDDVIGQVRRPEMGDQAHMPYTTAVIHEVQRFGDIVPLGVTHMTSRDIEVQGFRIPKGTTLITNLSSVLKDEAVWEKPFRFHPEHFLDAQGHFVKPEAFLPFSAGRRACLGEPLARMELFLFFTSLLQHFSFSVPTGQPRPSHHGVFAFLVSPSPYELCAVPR
D1, sequence (P21728 whole entry): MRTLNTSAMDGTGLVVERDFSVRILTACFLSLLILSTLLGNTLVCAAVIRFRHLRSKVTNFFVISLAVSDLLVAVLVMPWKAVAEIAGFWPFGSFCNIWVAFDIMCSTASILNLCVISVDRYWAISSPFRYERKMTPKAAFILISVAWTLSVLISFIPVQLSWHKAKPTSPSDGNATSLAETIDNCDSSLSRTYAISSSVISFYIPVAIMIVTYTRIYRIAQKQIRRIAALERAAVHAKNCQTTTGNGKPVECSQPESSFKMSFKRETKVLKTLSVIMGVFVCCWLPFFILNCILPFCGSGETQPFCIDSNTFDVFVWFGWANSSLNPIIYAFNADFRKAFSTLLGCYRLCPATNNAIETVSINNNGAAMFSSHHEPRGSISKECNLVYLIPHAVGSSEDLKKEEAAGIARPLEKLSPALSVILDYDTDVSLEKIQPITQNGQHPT
D2, sequence (P14416 whole entry): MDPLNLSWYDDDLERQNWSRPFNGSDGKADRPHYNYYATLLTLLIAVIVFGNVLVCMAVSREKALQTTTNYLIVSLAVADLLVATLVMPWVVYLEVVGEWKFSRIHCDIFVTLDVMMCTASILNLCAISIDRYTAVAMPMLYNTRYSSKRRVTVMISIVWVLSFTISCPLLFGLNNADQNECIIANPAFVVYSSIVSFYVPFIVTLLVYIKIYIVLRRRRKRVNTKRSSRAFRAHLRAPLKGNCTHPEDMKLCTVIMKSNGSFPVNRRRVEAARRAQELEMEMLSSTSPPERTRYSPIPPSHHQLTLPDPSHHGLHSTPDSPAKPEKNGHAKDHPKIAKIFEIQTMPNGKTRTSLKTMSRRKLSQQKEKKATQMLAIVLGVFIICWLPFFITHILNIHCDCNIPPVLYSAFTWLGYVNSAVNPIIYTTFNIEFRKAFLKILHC
CYP2C9, sequence (P11712 whole entry): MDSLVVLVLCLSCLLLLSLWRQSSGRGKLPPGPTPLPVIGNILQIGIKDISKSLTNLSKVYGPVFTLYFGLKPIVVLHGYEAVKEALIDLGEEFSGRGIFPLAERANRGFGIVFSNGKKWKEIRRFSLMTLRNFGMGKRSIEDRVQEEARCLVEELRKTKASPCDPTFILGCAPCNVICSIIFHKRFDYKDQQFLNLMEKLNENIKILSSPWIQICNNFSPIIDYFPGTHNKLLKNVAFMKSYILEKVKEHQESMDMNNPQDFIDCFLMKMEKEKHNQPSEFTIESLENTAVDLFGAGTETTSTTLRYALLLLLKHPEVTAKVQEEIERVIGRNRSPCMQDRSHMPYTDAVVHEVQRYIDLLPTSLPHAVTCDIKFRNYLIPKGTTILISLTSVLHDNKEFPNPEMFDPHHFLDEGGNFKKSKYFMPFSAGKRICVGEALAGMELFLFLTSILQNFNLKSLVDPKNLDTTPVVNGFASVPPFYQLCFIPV
CYP3A4, sequence (P08684 whole entry): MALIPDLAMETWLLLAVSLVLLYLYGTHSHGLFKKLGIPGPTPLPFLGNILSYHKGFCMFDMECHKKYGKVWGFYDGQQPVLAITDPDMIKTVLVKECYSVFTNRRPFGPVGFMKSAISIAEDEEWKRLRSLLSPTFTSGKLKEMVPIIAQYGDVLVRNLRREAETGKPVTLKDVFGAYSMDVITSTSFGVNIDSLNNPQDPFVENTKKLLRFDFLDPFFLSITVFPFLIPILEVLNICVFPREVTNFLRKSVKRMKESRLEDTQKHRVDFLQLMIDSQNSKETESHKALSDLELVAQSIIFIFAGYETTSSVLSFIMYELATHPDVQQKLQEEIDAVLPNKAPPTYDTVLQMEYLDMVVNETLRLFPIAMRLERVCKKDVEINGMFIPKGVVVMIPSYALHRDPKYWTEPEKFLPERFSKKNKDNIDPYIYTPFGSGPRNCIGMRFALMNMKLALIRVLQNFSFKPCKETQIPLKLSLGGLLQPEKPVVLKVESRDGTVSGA
CYP2C19, sequence (P33261 whole entry): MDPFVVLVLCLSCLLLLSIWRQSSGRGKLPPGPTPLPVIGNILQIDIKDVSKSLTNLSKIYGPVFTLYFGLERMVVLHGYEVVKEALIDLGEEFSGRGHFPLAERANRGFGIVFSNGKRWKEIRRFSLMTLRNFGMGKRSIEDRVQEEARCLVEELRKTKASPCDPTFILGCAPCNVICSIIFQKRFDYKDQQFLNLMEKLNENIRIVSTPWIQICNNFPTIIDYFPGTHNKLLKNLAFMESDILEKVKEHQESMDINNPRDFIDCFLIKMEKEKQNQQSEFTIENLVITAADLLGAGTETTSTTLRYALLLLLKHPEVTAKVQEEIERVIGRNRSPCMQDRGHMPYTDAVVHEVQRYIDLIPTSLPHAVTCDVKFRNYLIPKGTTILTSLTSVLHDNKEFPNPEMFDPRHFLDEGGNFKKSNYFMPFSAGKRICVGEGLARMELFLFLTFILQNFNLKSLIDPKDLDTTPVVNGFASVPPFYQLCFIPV

One may read the IC50 as the midpoint of a concentration-inhibition curve. The term bioavailability denotes dose-corrected exposure relative to a reference, in per cent. For the molecule `COc1cc(Cl)cc(C(C)Nc2cc(N3CCNCC3)ccc2S(C)(=O)=O)c1OC.Cl` (stereo not drawn) [Compound A, [1-(5-Chloro-2,3-dimethoxy-phenyl)-ethyl]-(2-methanesulfonyl-5-piperazin-1-yl-phenyl)-amine hydrochloride], the “safety margin (selectivity) to more than 70 tested receptors” value in [1] is more than 100 fold. Further, the IC50 on D2 is 9 µM; on CYP2D6, 7.81 µM; at CYP2C9 it was more than 7.5 µM; on CYP2C19, more than 7.5 µM; at M1, 3.4 µM; at 5HT2C, 3.8 µM. In addition, the IC50 against CYP1A2 was more than 7.5 µM; at CYP3A4, more than 7.5 µM; on α2, 23 µM; at α1, 24 µM. Besides, the bioavailability is 81% in [2] (read-out: bioavailability F) and 38% in data set [4]. For the same molecule, the half-life is 5 h in data set [2] (read-out: half-life T1/2 (converted)) and 1.5 h in data set [4]. In addition, the Ki on D1 fell in the range of 0.1 to 1 µM. Also, in [3], the body weight entry is recorded as “significant reduction”. For the same molecule, the food intake entry in data set [3] is “significant reduction”.
